Measured values published in US20090099169A1, “Benzofuran Compounds As EP1 Receptor Antagonists” (GLAXO GROUP LIMITED, priority 2006, published 2009).
Structures can show the parent of a compound that is named as a salt.

These molecules were tested against T1, human EP1 receptor (Homo sapiens, UniProt P34995) (assay: human EP1 calcium mobilisation assay). Details: CHO-K1 cells, antagonism of PGE2; averages of a number of experiments; read-out: functional pKi value (human EP1 calcium mobilisation assay) (converted).
T1 sequence (P34995 1-402): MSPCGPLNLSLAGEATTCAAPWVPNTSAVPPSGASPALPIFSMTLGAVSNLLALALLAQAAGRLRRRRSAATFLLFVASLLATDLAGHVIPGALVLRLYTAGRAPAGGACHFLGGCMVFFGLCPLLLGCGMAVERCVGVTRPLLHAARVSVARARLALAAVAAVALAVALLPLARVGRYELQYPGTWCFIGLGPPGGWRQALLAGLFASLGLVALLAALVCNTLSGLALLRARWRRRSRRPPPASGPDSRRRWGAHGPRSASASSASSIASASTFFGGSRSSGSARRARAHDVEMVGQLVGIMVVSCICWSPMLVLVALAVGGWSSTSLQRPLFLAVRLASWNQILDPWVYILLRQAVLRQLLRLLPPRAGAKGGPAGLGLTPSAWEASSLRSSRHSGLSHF
Type: cell-based
Design: expressed in transfected cells
Description: Briefly, the antagonist properties of compounds are assessed by their ability to inhibit the mobilisation of intracellular calcium ([Ca^2+]i) in response to activation of EP1 or EP3 receptors by the natural agonist hormone prostaglandin E2 (PGE2). Increasing concentrations of antagonist reduce the amount of calcium that a given concentration of PGE2 can mobilise. The net effect is to displace the PGE2 concentration-effect curve to higher concentrations of PGE2. The amount of calcium produced is assessed using a calcium-sensitive fluorescent dye such as Fluo-4, AM and a suitable instrument such as a Fluorimetric Imaging Plate Reader (FLIPR). Increasing amounts of [Ca^2+]i produced by receptor activation increase the amount of fluorescence produced by the dye and give rise to an increasing signal. The signal may be detected using the FLIPR instrument and the data generated may be analysed with suitable curve-fitting software.
The human EP1 or EP3 calcium mobilisation assay (hereafter referred to as ‘the calcium assay’) utilises Chinese hamster ovary-K1 (CHO-K1) cells into which a stable (PCIN; BioTechniques 20 (1996): 102-110) vector containing either EP1 or EP3 cDNA has previously been transfected. Cells are cultured in suitable flasks containing culture medium such as DMEM:F-12 supplemented with 10% v/v foetal calf serum, 2 mM L-glutamine, 0.25 mg/ml geneticin, 100 μM flurbiprofen and 10 μg/ml puromycin.
For assay, cells are harvested using a proprietary reagent that dislodges cells such as Versene. Cells are re-suspended in a suitable quantity of fresh culture media for introduction into a 384-well plate. Following incubation for 24 hours at 37° C. the culture media is replaced with a medium containing Fluo-4 and the detergent pluronic acid, and a further incubation takes place. Concentrations of compounds are then added to the plate in order to construct concentration-effect curves. This may be performed on the FLIPR in order to assess the agonist properties of the compounds. Concentrations of PGE2 are then added to the plate in order to assess the antagonist properties of the compounds.
The data so generated may be analysed by means of a computerised curve-fitting routine. The concentration of compound that elicits a half-maximal inhibition of the calcium mobilisation induced by PGE2 (pIC50) may then be estimated.

| Structure (SMILES) | Ki |
| --- | --- |
| CC(C)c1cc2cc(Cl)cc(Cc3ccc(C(=O)NN4CCOCC4)o3)c2o1 [Example 42, 5-{[5-Chloro-2-(1-methylethyl)-1-benzofuran-7-yl]methyl}-N-4-morpholinyl-2-furancarboxamide] | ≤ 316 nM |
| CC(C)c1cc2cc(Cl)cc(Cc3ccc(-c4nc5cc(CN6CCCC6)ccc5[nH]4)o3)c2o1 [Example 12, 2-(5-{[5-Chloro-2-(1-methylethyl)-1-benzofuran-7-yl]methyl}-2-furanyl)-5-(1-pyrrolidinylmethyl)-1H-benzimidazole Hydrochloride] | ≤ 316 nM |
| CCN1CCC(CNC(=O)c2cc(C)n(Cc3cc(Cl)cc4cc(C(C)C)oc34)n2)CC1 [Example 36, 1-{[5-chloro-2-(1-methylethyl)-1-beenzofuran-7-yl]methyl}-N-[(1-ethyl-4-piperidinyl)methyl]-5-methyl-1H-pyrazole-3-carboxamidehydrochloride] | 1000 to 1580 nM |
| Cc1cc(C(N)=O)nn1Cc1cc(C#N)cc2cc(C(C)C)oc12 [Example 41, 1-{[5-Cyano-2-(1-methylethyl)-1-benzofuran-7-yl]methyl}-5-methyl-1H-pyrazole-3-carboxamide] | ≤ 316 nM |
| Cc1cc(C(=O)NC2CCNCC2)nn1Cc1cc(Cl)cc2cc(C(C)C)oc12 [Example 33, 1-{[5-chloro-2-(1-methylethyl)-1-benzofuran-7-yl]methyl}-5-methyl-N-4-piperidinyl-1H-pyrazole-3-carboxamide Hydrochloride] | 1000 to 1580 nM |
| Cc1cc(C(=O)O)nn1Cc1cccc2cc(C(C)C)oc12 [Example 20, 5-Methyl-1-{[2-(1-methylethyl)-1-benzofuran-7-yl]methyl}-1H-pyrazole-3-carboxylic Acid] | ≤ 316 nM |
| CC(C)c1cc2cc(Cl)cc(Cc3cccc(C(N)=O)n3)c2o1 [Example 40, 6-{[5-Chloro-2-(1-methylethyl)-1-benzofuran-7-yl]methyl}-2-pyridinecarboxamide] | ≤ 316 nM |
| CC(C)c1cc2cc(Cl)cc(Cc3ccc(-c4nc5cc(CN6CCN(C)CC6)ccc5[nH]4)o3)c2o1 [Example 13, 2-(5-{[5-Chloro-2-(1-methylethyl)-1-benzofuran-7-yl]methyl}-2-furanyl)-5-[(4-methyl-1-piperazinyl)methyl]-1H-benzimidazole Hydrochloride] | ≤ 316 nM |
| CC(C)c1cc2cc(Cl)cc(Cc3ccc(-c4nc5cc(CN(C)C)ccc5[nH]4)o3)c2o1 [Example 11, 1-[2-(5-{[5-Chloro-2-(1-methylethyl)-1-benzofuran-7-yl]methyl}-2-furanyl)-1H-benzimidazol-5-yl]-N,N-dimethylmethanamine Hydrochloride] | ≤ 316 nM |
| CC(C)c1cc2cc(Cl)cc(Cc3ccc(C(=O)NN4CCCCC4)o3)c2o1 [Example 43, 5-{[5-Chloro-2-(1-methylethyl)-1-benzofuran-7-yl]methyl}-N-1-piperidinyl-2-furancarboxamide] | ≤ 316 nM |
| Cc1cc(C(=O)NN2CCOCC2)nn1Cc1cc(Cl)cc2cc(C3CC3)oc12 [Example 31, 1-[(5-Chloro-2-cyclopropyl-1-benzofuran-7-yl)methyl]-5-methyl-N-4-morpholinyl-1H-pyrazole-3-carboxamide] | ≤ 316 nM |

Further lines, results first:

| Ki | Structure (SMILES) |
| --- | --- |
| ≤ 316 nM | Cc1cc(C(=O)NCC2CCOCC2)nn1Cc1cc(Cl)cc2cc(C(C)C)oc12 [Example 61, 1-{[5-Chloro-2-(1-methylethyl)-1-benzofuran-7-yl]methyl}-5-methyl-N-(tetrahydro-2H-pyran-4-ylmethyl)-1H-pyrazole-3-carboxamide] |
| 1000 to 1580 nM | CC(C)c1cc2cc(Cl)cc(Cc3ccc(C(=O)NCCN(C)C)o3)c2o1 [Example 58, 5-{[5-Chloro-2-(1-methylethyl)-1-benzofuran-7-yl]methyl}-N-[2-(dimethylamino)ethyl]-2-furancarboxamidehydrochloride] |
| ≤ 316 nM | Cc1cc(NC(=O)C2CCOCC2)nn1Cc1cc(C#N)cc2cc(C(C)C)oc12 [Example 70, N-(1-{[5-Cyano-2-(1-methylethyl)-1-benzofuran-7-yl]methyl}-5-methyl-1H-pyrazol-3-yl)tetrahydro-2H-pyran-4-carboxamide] |
| ≤ 316 nM | Cc1cc(NC(=O)[C@H]2CCCO2)nn1Cc1cc(C#N)cc2cc(C(C)C)oc12 [Example 69, (2R)—N-(1-{[5-Cyano-2-(1-methylethyl)-1-benzofuran-7-yl]methyl}-5-methyl-1H-pyrazol-3-yl)tetrahydro-2-furancarboxamide] |
| ≤ 316 nM | CC(C)c1cc2cc(Cl)cc(Cc3ccc(C(=O)Nc4ccc(CN5CCOCC5)cc4)o3)c2o1 [Example 54, 5-{[5-Chloro-2-(1-methylethyl)-1-benzofuran-7-yl]methyl}-N-[4-(4-morpholinylmethyl)phenyl]-2-furancarboxamide Hydrochloride] |
| ≤ 316 nM | Cc1cc(C(=O)NN2CCOCC2)nn1Cc1cc(C#N)cc2cc(C(C)C)oc12 [Example 45, 1-{[5-Cyano-2-(1-methylethyl)-1-benzofuran-7-yl]methyl}-5-methyl-N-4-morpholinyl-1H-pyrazole-3-carboxamide] |

What follows are molecules tested against T1, human EP1 receptor (assay: Binding assay for the human prostanoid EP1 receptor (radioligand competition)). Details: CHO-K1 membranes; [3H]-PGE2 for Examples 1-17, 19, 33, 34, 60 and 61, 3-{2-[5-Bromo-2-(2,4-difluorobenzyloxy)-phenyl]-5-methyl-pyrrol-1-yl}-6-[3H3-methoxy]methoxy-benzoic acid for the remaining; averages of a number of experiments; read-out: pIC50 value (binding assay for the human prostanoid EP1 receptor) (converted).
Design: expressed in transfected cells; host or cells: CHO-K1 (membranes)
Description: Compound potencies are determined using a radioligand binding assay. In this assay compound potencies are determined from their ability to compete with tritiated prostaglandin E2 ([^3H]-PGE2) for binding to the human EP1 receptor.
This assay utilises Chinese hamster ovary-K1 (CHO-K1) cells into which a stable vector containing the EP1 cDNA has previously been transfected. Cells are cultured in suitable flasks containing culture medium such as DMEM:F-12 supplemented with 10% v/v foetal calf serum, 2 mM L-glutamine, 0.25 mg/ml geneticin, 10 μg/ml puromycin and 10 μM indomethacin.
Cells are detached from the culture flasks by incubation in calcium and magnesium free phosphate buffered saline containing 1 mM disodium ethylenediaminetetraacetic acid (Na2EDTA) and […] indomethacin for 5 min. The cells are isolated by centrifugation at 250×g for 5mins and suspended in an ice cold buffer such as 50 mM Tris, 1 mM Na2EDTA, 140 mM NaCl, 10 μM indomethacin (pH 7.4). The cells are homogenised using a Polytron tissue disrupter (2×10 s burst at full setting), centrifuged at 48,000×g for 20mins and the pellet containing the membrane fraction is washed (optional) three times by suspension and centrifugation at 48,000×g for 20mins. The final membrane pellet is suspended in an assay buffer such as 10 mM 2-[N-morpholino]ethanesulphonic acid, 1 mM Na2EDTA, 10 mM MgCl2 (pH 6). Aliquots are frozen at −80° C. until required.
(§1) For the binding assay the cell membranes, competing compounds and [^3H]-PGE2 (3 nM final assay concentration) are incubated in a final volume of 100 μl for 30 min at 30° C. All reagents are prepared in assay buffer. Reactions are terminated by rapid vacuum filtration over GF/B filters using a Brandell cell harvester. The filters are washed with ice cold assay buffer, dried and the radioactivity retained on the filters is measured by liquid scintillation counting in Packard TopCount scintillation counter.
The data are analysed using non linear curve fitting techniques to determine the concentration of compound producing 50% inhibition of specific binding (IC50).
Alternatively a similar assay may be carried out using 3-{2-[5-Bromo-2-(2,4-difluoro-benzyloxy)-phenyl]-5-methyl-pyrrol-1-yl}-6-[^3H3-methoxy]methoxy-benzoic acid instead of [^3H]-PGE2.
For the binding assay using 3-{2-[5-Bromo-2-(2,4-difluoro-benzyloxy)-phenyl]-5-methyl-pyrrol-1-yl}-6-[^3H3-methoxy]methoxy-benzoic acid instead of [^3H]-PGE2 the assay is carried out using a similar procedure to that described above using [^3H]-PGE2 with the following changes:
as §1, with “The” for “For the binding assay the”, “3-{2-[5-Bromo-2-(2,4-difluoro-benzyloxy)-phenyl]-5-methyl-pyrrol-1-yl}-6-[^3H3-methoxy]methoxy-benzoic acid (0.2” for “[^3H]-PGE2 (3”, “400” for “100”, “45” for “30”, “37°” for “30°”, “water at ambient temperature,” for “ice cold assay buffer,”
The preparation of 3-{2-[5-Bromo-2-(2,4-difluoro-benzyloxy)-phenyl]-5-methyl-pyrrol-1-yl}-6-methoxy-benzoic acid is described in WO 03/101959 and in Hall et al, Biorg. Med. Chem. Lett., 2007, 17, 916-920. The tritiated version may be prepared via conventional routes, e.g. from 3-{2-[5-bromo-2-(2,4-difluoro-benzyloxy)-phenyl]-5-methyl-pyrrol-1-yl}-6-hydroxy-benzoic acid or 3-{2-[5-bromo-2-(2,4-difluoro-benzyloxy)-phenyl]-5-methyl-pyrrol-1-yl}-6-hydroxy-benzoic acid methyl ester.

| IC50 | Structure (SMILES) |
| --- | --- |
| ≤ 100 nM | Cc1cc(NC(=O)[C@H]2CC[C@H](O)CC2)nn1Cc1cc(Cl)cc2cc(C(C)C)oc12 [Example 63, trans-N-(1-{[5-chloro-2-(1-methylethyl)-1-benzofuran-7-yl]methyl}-5-methyl-1H-pyrazol-3-yl)-4-hydroxycyclohexanecarboxamide] |
